Series [1] is classed as physicochemical. On the procedure: The solubility of Rebaudioside A (RA), Stevioside (STV), α-1,6 transglucosylated Rebaudioside A (RA-Glu) of Example 1-1, and transglucosylated Stevioside (STV-Glu) was measured. In particular, the transglucosylated Stevioside was obtained by reacting Stevioside and sucrose in the presence of a glucosyltransferase in the same manner as in Example 1-1.
6 g of each of Rebaudioside A, Stevioside, transglucosylated Rebaudioside A, and transglucosylated Stevioside was mixed with 10 ml and then dissolved by sonication at 50° C. for 60 minutes. The resultant was incubated for 1 week in a water bath at 5° C., 15° C., 25° C., 35° C., 45° C., or 55° C. Thereafter, the resulting solution was centrifuged at 12000 rpm for 10 minutes, and 1 ml of the supernatant was collected and dried in an oven at 105° C. to measure the solubility.

Series [2] can be described thus: Evaluation of actual sweetness and quality of sweetness by panels. The format is in vivo. Conditions: sample dissolved in water, evaluated by panels. An excerpt:
Two samples prepared in Example 1-1 above were independently dissolved in water and provided to panels for evaluation of actual sweetness and the quality of sweetness.

“Also recorded” adds a separate entry of the source. Bounds are passed on as bounds.

As for transglucosylated Stevioside [STV-Glu], in series [1], the “Solubility (%)” value is ≥ 40↑ %; the “solubility as compared to Stevioside and Rebaudioside A, respectively” value was “remarkably increased solubility”.

For α-1,4 transglucosylated Rebaudioside A, in series [2], the “Actual Sweetness” value was 19 and the “Quality of Sweetness” value is listed as “Bitter taste is stronger than sweet taste, has greasy”.

“α-1,6 transglucosylated Rebaudioside A [RA-Glu]”: in series [2], the “Quality of Sweetness” value is recorded as “better quality of sweetness; also recorded: Gives sweet taste in the beginning, has a bit of bitter”. In series [1], the “Solubility (%)” value is given as ≥ 40↑ %; the “solubility as compared to Stevioside and Rebaudioside A, respectively” value is recorded as “remarkably increased solubility”.

Source of the values: US20220132898A1, “COMPOSITION COMPRISING TRANSGLYCOSYLATED STEVIOSIDE AND TRANSGLYCOSYLATED REBAUDIOSIDE A” (CJ CHEILJEDANG CORPORATION, priority 2019, published 2022).
